Test results reported in patent US5382596A, “Substituted 2-aminotetralins” (priority 1993, dated 1995).
Structures can show the parent of a compound that is named as a salt. Where two headings read alike, the source gives them in different places.

Columns and labels:
[1] = system: denervated supersensitive postsynaptic dopamine receptors; test: In vivo functional test: contralateral circling in rats with unilateral 6-hydroxydopamine lesions of the substantia nigra; set-up: species or system rat; conditions: for ED50: contralateral circling, rats, unilateral 6-hydroxydopamine lesion
Excerpt: Dopamine agonists produce contralateral circling behavior in rats in which unilateral lesions of the substantial nigra are made by prior injection of 6-hydroxydopamine. The circling is thought to be mediated by stimulation of denervated supersensitive postsynaptic dopamine receptors (Marshall and Ungerstedt, 1977, Eur. J. Pharmacol., 41:361-367).

[2] = biological target: T1, adrenergic α2 receptor (Rattus norvegicus, UniProt P22909); test: Adrenergic α2 in vitro functional test (rat vas deferens, inhibition of twitch); format: biochemical
T1 sequence (P22909 1-465): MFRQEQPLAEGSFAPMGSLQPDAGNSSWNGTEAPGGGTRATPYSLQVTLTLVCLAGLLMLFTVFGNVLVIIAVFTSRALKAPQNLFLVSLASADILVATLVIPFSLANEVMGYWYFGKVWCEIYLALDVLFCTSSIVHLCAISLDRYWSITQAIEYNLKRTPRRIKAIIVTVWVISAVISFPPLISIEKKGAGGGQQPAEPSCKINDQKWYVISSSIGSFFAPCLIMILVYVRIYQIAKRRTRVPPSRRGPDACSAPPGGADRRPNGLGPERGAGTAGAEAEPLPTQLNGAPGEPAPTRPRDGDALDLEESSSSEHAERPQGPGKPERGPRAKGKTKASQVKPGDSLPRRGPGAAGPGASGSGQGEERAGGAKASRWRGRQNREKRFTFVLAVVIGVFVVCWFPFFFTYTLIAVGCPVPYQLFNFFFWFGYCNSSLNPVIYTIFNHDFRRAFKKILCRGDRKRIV
Method: Vasa deferentia from male Sprague-Dawley rats weighing between 150-250 g were removed and placed in isolated organ baths containing Krebs-Henseleitsolution under a resting tension of 1 g. All other set up conditions were identical to those used for the mouse was deferens. Tissues were pretreated with propranolol (1 μM), ascorbic acid (100 μM) and the α1 -adrenergic antagonist prazosin (0.3 or 1 μM) for 60 min before the addition of test compound.

[3] = biological target: Dopamine D2 receptor (Bos taurus, UniProt P20288); test: biochemical; format: binding, bovine; conditions: for Ki: bovine caudate membranes, 3H-Spiperone, RT, 75 min, read-out: D2 K1
Dopamine D2 receptor, sequence (P20288 whole entry): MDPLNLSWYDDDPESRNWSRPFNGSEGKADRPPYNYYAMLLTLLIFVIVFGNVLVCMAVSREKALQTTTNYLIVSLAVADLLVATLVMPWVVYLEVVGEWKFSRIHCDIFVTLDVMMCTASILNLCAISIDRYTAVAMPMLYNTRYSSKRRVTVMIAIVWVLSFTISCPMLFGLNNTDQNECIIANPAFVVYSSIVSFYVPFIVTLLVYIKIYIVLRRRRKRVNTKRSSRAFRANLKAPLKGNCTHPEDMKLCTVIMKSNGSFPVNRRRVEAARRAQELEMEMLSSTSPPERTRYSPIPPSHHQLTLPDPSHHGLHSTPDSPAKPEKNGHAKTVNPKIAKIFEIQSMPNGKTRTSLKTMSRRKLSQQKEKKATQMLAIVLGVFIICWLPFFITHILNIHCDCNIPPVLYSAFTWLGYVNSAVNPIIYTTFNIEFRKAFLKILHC
Method: (§1) Membranes were prepared using a Brinkmann Polytron and collected by centrifugation. Membrane sources were bovine caudate (D2,D1) or rat cortex (α2). The membranes were washed, resuspended, and incubated at 37° C. for 30 min. in either the presence (rat cortex) of 1 μ/ml adenosine deaminase or absence (bovine caudate) of 0.1 μ/ml adenosine deaminase. Membranes were centrifuged, washed once and frozen at -70° C. until used. Immediately before use, the membranes were thawed, washed once, and resuspended to a final concentration of 0.5-2 mg/ml. Assays were initiated by addition of membranes. For D2 and D1 assays, the radioligands and conditions used were ^3 H-Spiperone (RT, 75 min.) and ^3 H-SCH23390 (37° C., 15 min.), respectively. For α2 assays, ^3 H-PAC (RT, 30 min.) was used Assays were terminated by filtration using a Brandel cell harvester over Whatman GF/B filters that had been pretreated with 0.1% polyethylenimine. […]

[4] = biological target: Dopamine D1 receptor (Bos taurus, UniProt Q95136); test: biochemical; format: binding, bovine; conditions: bovine caudate membranes, 3H-SCH23390, 37° C., 15 min; read-out: D1 K1
Dopamine D1 receptor, sequence (Q95136 whole entry): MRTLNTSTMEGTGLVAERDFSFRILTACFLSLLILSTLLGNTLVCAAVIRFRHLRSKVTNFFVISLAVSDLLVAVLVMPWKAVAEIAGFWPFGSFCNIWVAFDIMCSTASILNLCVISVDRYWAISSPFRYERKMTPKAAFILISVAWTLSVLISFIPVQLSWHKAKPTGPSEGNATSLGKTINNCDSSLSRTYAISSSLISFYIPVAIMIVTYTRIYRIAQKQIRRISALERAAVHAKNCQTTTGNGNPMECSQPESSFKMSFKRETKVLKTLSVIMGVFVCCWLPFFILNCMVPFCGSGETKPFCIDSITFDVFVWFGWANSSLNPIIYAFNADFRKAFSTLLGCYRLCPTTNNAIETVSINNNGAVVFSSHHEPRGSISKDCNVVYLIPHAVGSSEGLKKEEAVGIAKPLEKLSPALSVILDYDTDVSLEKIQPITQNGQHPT
Method: as §1

[5] = biological target: dopamine D2 receptor (Mus musculus, UniProt P61168); test: biochemical; format: biochemical; conditions: for EC50: concentration that produces 50% of the maximal inhibition of twitch, mouse vas deferens, read-out: D2 A50
dopamine D2 receptor, sequence (P61168 whole entry): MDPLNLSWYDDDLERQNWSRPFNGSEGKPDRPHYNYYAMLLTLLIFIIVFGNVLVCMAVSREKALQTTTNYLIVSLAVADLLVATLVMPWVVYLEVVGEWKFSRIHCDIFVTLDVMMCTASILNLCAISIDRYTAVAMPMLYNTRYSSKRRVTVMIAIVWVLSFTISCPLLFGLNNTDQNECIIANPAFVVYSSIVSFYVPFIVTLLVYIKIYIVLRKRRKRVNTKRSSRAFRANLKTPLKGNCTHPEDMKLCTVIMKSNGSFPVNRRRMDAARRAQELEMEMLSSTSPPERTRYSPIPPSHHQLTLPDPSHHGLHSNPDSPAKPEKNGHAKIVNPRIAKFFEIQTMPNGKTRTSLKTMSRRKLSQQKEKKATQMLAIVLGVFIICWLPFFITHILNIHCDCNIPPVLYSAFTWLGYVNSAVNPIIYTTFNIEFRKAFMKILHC
Method: Vasa deferentia from male BALB/C mice weighing approximately 30 g were removed and placed in isolated organ baths containing magnesium-free modified Krebs-Henseleit solution which was gassed with 95% O2 and 5% CO2 and maintained at 37° C. Tissues were set up under resting tension of 0.5 g and stimulated electrically at 60 volts, 0.1 Hz and 1 msec duration to produce a series of twitch responses. Tissues were pretreated with propranolol (1 μM) to block β-adrenoceptors, idazoxan (3 μM) to block α2 -adrenoceptors receptors, and ascorbic acid (100 μM) for 60 min before the addition of test compound.

[6] = concentration that produces 50% of the maximal inhibition of twitch, rat vas deferens, read-out: a2 A50

## CCCN(CCOC(C)C)[C@H]1CCc2c(ccc(O)c2O)C1.Cl [Example 1, (S)-5,6,7,8-Tetrahydro-6-[[2-(1-methylethoxy)ethyl]-propylamino]-1,2-naphthalenediol, hydrochloride]
[1]
  ED50: 0.004 µmol/kg
[2]; [6]
  EC50: 218 nM
[3]
  Selectivity Ratio (D1 K1/D2 K1): 112
  Ki: 65 nM
[4]
  Ki: 7240 nM
[5]
  Specificity Ratio (a2 A50/D2 A50): 1480
  EC50: 0.148 nM

## CCCN(CCOCC)[C@H]1CCc2c(ccc(O)c2O)C1 [Example 2, (S)-6-[[2-(ethoxy)ethyl]propylamino]-5,6,7,8-tetrahydro-1,2-naphthalenediol]
[1]
  ED50: 0.004 µmol/kg
[2]; [6]
  EC50: 18.6 nM
[3]
  Selectivity Ratio (D1 K1/D2 K1): 20
  Ki: 316 nM
[4]
  Ki: 6310 nM
[5]
  Specificity Ratio (a2 A50/D2 A50): 45
  EC50: 0.417 nM

## CCCN(CCOCC1CC1)[C@H]1CCc2c(ccc(O)c2O)C1 [Example 3]
[1]
  ED50: 0.007 µmol/kg
[2]; [6]
  EC50: 195 nM
[3]
  Selectivity Ratio (D1 K1/D2 K1): 74
  Ki: 65 nM
[4]
  Ki: 4790 nM
[5]
  Specificity Ratio (a2 A50/D2 A50): 1860
  EC50: 0.105 nM

## CCCN(CCOC(C)CC)[C@H]1CCc2c(ccc(O)c2O)C1 (stereo partly drawn) [Example 5]
[1]
  ED50: 0.006 µmol/kg
[2]; [6]
  EC50: 245 nM
[3]
  Selectivity Ratio (D1 K1/D2 K1): 40
  Ki: 115 nM
[4]
  Ki: 4570 nM
[5]
  Specificity Ratio (a2 A50/D2 A50): 1020
  EC50: 0.24 nM

## CCCN(CCOC1CCCC1)[C@H]1CCc2c(ccc(O)c2O)C1 [Example 6]
[1]
  ED50: 0.008 µmol/kg
[2]; [6]
  EC50: 87.1 nM
[3]
  Selectivity Ratio (D1 K1/D2 K1): 98
  Ki: 51 nM
[4]
  Ki: 5010 nM
[5]
  Specificity Ratio (a2 A50/D2 A50): 537
  EC50: 0.162 nM

## CCCOCCN(CCC)[C@H]1CCc2c(ccc(O)c2O)C1 [Example 7, (S)-5,6,7,8-tetrahydro-6-[[2-(propoxy)ethyl]propylamino]-1,2-naphthalenediol]
[1]
  ED50: 0.002 µmol/kg
[2]; [6]
  EC50: 148 nM
[3]
  Selectivity Ratio (D1 K1/D2 K1): 36
  Ki: 129 nM
[4]
  Ki: 4680 nM
[5]
  Specificity Ratio (a2 A50/D2 A50): 186
  EC50: 0.794 nM

## CCCCOCCN(CCC)[C@H]1CCc2c(ccc(O)c2O)C1 [Example 8, (S)-6-[[2-(butoxy)ethyl]propylamino]-5,6,7,8-tetrahydro-1,2-naphthalenediol]
[1]
  ED50: 0.004 µmol/kg
[2]; [6]
  EC50: 107 nM
[3]
  Selectivity Ratio (D1 K1/D2 K1): 52
  Ki: 112 nM
[4]
  Ki: 5890 nM
[5]
  Specificity Ratio (a2 A50/D2 A50): 398
  EC50: 0.269 nM

## CCCN(CCOC(C)(C)C)[C@H]1CCc2c(ccc(O)c2O)C1 [Example 9, (S)-6-[[2-(1,1-dimethylethoxy)ethyl]propylamino]-5,6,7,8-tetrahydro-1,2-naphthalenediol]
[1]
  ED50: 0.004 µmol/kg
[1]; rat, in vivo
  in vivo functional potency (in words): high in vivo functional potency
[2]; [6]
  EC50: 144 nM
[3]
  dopamine D2 receptor affinity (in words): high affinity
  Selectivity Ratio (D1 K1/D2 K1): 166
  Ki: 54 nM
[3]; D2 vs. D1
  D2 receptor selectivity (in words): high affinity, selectivity
[4]
  Ki: 8910 nM
[5]
  dopamine D2 receptor in vitro functional activity/potency (in words): high affinity, selectivity, specificity, and functional potency
  Specificity Ratio (a2 A50/D2 A50): 1620
  EC50: 0.089 nM
[5]; D2 vs. α2
  D2 receptor specificity (in words): high affinity, selectivity, specificity

## CCCCCOCCN(CCC)[C@H]1CCc2c(ccc(O)c2O)C1 [Example 10]
[1]
  ED50: 0.030 µmol/kg
[2]; [6]
  EC50: 93.3 nM
[3]
  Selectivity Ratio (D1 K1/D2 K1): 46
  Ki: 54 nM
[4]
  Ki: 2450 nM
[5]
  Specificity Ratio (a2 A50/D2 A50): 1000
  EC50: 0.093 nM

## CCCN(CCC1CCCO1)[C@H]1CCc2c(ccc(O)c2O)C1 (stereo partly drawn) [Example 11]
[1]
  ED50: 0.010 µmol/kg
[2]; [6]
  EC50: 79.4 nM
[3]
  Selectivity Ratio (D1 K1/D2 K1): 141
  Ki: 30 nM
[4]
  Ki: 4270 nM
[5]
  Specificity Ratio (a2 A50/D2 A50): 62
  EC50: 1.29 nM

## CCCN(CCC1CCCCO1)[C@H]1CCc2c(ccc(O)c2O)C1 (stereo partly drawn) [Example 12]
[1]
  ED50: 0.030 µmol/kg
[2]; [6]
  EC50: 199 nM
[3]
  Selectivity Ratio (D1 K1/D2 K1): 224
  Ki: 25 nM
[4]
  Ki: 5490 nM
[5]
  Specificity Ratio (a2 A50/D2 A50): 1000
  EC50: 0.2 nM

## CCCN(CCCOC(C)C)[C@H]1CCc2c(ccc(O)c2O)C1 [Example 13]
[1]
  ED50: 0.006 µmol/kg
[2]; [6]
  EC50: 93.3 nM
[3]
  Selectivity Ratio (D1 K1/D2 K1): 113
  Ki: 51 nM
[4]
  Ki: 5750 nM
[5]
  Specificity Ratio (a2 A50/D2 A50): 914
  EC50: 0.102 nM

## CCN(CCC1CCCO1)[C@H]1CCc2c(O)cccc2C1 (stereo partly drawn) [Example 25]
[2]; [6]
  EC50: > 10000 nM
[3]
  Selectivity Ratio (D1 K1/D2 K1): 57
  Ki: 117 nM
[4]
  Ki: 6610 nM
[5]
  Specificity Ratio (a2 A50/D2 A50): > 14100
  EC50: 0.708 nM

## CCCN(CCOC(C)C)[C@H]1CCc2c(ccc3c2OCO3)C1.Cl [Example 26, (S)-6,7,8,9-Tetrahydro-N-[2-(1-methylethoxy)ethyl]-N-propylnaphtho[1,2-d]-1,3-dioxol-7-amine, hydrochloride]
[1]
  ED50: 0.030 µmol/kg

## CCCN(CCOCC)[C@H]1CCc2c(ccc3c2OCO3)C1 [Example 27]
[1]
  ED50: 0.100 µmol/kg

## CCCOCCN(CCC)[C@H]1CCc2c(ccc3c2OCO3)C1 [Example 28]
[1]
  ED50: 0.100 µmol/kg

## CCCN(CCOC(C)(C)C)[C@H]1CCc2c(ccc3c2OCO3)C1 [Example 29]
[1]
  ED50: 0.040 µmol/kg

## CCCN(CCOC(C)C)[C@H]1CCc2c(ccc3oc(=O)oc23)C1 [Example 38, (S)-5,6,7,8-Tetrahydro-6-[[2-(1-methylethoxy)ethyl]-propylamino]-1,2-naphthalenediol, cyclic carbonate, hydrochloride]
[1]
  ED50: 0.005 µmol/kg

## CCCN(CCC)[C@H]1CCc2c(ccc(O)c2O)C1 [Example 40, (S)-5,6-dihydroxy-2-(di-n-propyl)aminotetralin, reference compound]
[1]
  ED50: 0.009 µmol/kg
[2]
  EC50: 12.5 nM
